# Laboratory results reported in patent US9388146B2, “Crystalline forms of tyrosine kinase inhibitors and their salts” (Purdue Pharma L.P., priority 2013, dated 2016).
# Where two headings read alike, the source gives them in different places.
# Legend:
# [1] = Rat pharmacokinetics (plasma, LC-MS/MS, non-compartmental analysis); assay type: in vivo; settings: for bioavailability: oral
# Experimental: (§1) Compound I was dosed to nonfasted male CD IGS rats (weighting 180-250 g, Charles River Laboratories) by single intravenous (IV, n=3/group) or oral gavage (PO, n=4/group, including control rat group for drug-free blood and brain collection) administration at a nominal dose levels of 3 mg/kg (IV) or 5 mg/kg (IV) and 10, 50, 100 mg/kg (PO) respectively. Compound was formulated in either DMSO/Solutol® HS 15/phosphate buffered saline, pH 7.4 (PBS) for both IV and PO dosing, or 10% (w/v) Povidone K12 in water for IV dosing or 10% (w/v) Povidone K25 in water for PO dosing, or 18% (w/v) CrosPovidone in water for PO dosing. An intravenous profile was obtained by taking serial or terminal blood samples at 3, 10, 30, 60, 120, 240, 360, 1440 min post dose. An oral profile was obtained by taking serial or terminal blood samples at 10, 30, 60, 120, 240, 360, 480, 1440 min post dose.
# (§2) Animals were sedated under general inhalant anesthesia (3% isoflurane) for blood collection by cardiac puncture. Blood aliquots (300-400 μL) were collected in tubes coated with lithium heparin, mixed gently, then kept on ice and centrifuged at 2,500×g for 15 minutes at 4° C., within 1 hour of collection. For control animals, blood was collected by cardiac puncture. The plasma was then harvested and kept frozen at −20° C. until further processing. Plasma Sample Collection from Cannulated Rats. Blood collection was carried out from the jugular vein catheter. Blood aliquots (300-400 μL) were collected in tubes coated with lithium heparin, mixed gently, then kept on ice and centrifuged at 2,500×g for 15 minutes at 4° C., within 1 hour of collection. For control animals, blood was collected by cardiac puncture. The plasma was then harvested and kept frozen at −20° C. until further processing.
# (§3) Plasma and brain samples were subjected to quantitative analysis by LC-MS/MS using compound-specific mass transitions. Drug concentration-time profiles were generated and non-compartmental PK analysis (using WinNonlin) used to generate estimates of half-life (T1/2), clearance, volume of distribution (Vss), and oral bioavailability (F %) (Gabriesson, J. and Weiner, D. Pharmacokinetic and Pharmacodynamic Data Analysis: Concepts and Applications. Swedish Pharmaceutical Press. 1997). The concentrations of the test compound in brain (ng/g brain tissue) and in plasma (ng/mL) as well as the ratio of the brain concentration and the plasma concentration at each time point were determined and reported.
# TrkC = TrkC (Homo sapiens, UniProt Q16288); test: PathHunter whole cell functional assay, NT3 stimulated TrkC activation; assay type: cell-based; settings: triplicate
# TrkB = TrkB (Homo sapiens, UniProt Q16620); test: PathHunter whole cell functional assay, BDNF stimulated TrkB activation; assay type: cell-based; settings: triplicate
# SNL rats = test: Spinal nerve ligation (SNL) mono-neuropathic pain model in rat; assay type: in vivo; settings: oral administration
# Experimental: The surgical procedure will be performed according to the method firstly described by Kim and Chung (Kim S H, Chung J M. Pain. 1992; 50(3):355-63.). This procedure will result in tactile allodynia in the left hindpaw. […] The dose-response anti-allodynia effects of test compound: on day 14 after surgery, rats were treated with test article at one of four doses, vehicle or positive control by oral gavage, and PWT was determined by calibrated von Frey filaments at time points of 0 (right before the drug dosing, Pre-Dose Baseline), 0.5, 1, 2, 4 and 6 hr. The anti-allodynia effects of repeated administration of test article: Administration of test article was started on day 7 after surgery, once a day for 7 days. PWT was determined by calibrated von Frey filaments, 2 hour after test article dosing each day. After 7 days dosing, the measurement were continued, every other day without compound dosing for another 7 days. PWT was determined at the time points as given above.
# [2] = Accelerated stability tests by XRPD and Raman; assay type: physicochemical; settings: 1 week
# Experimental: Approximately 2 mg of sample was gently compressed on the XRPD zero back ground single obliquely cut silica sample holder. The sample was then loaded into a D/MAX 2200 X-ray powder diffractometer (Rigaku) or a Philips X-Pert MPD diffractometer and analyzed using the following experimental conditions (Tube anode: Cu; Generator tension: 40 kV; Tube current: 40 mA; Wavelength alpha1: 1.54056 Å; Wavelength alpha2: 1.5444 Å; Start angle [2 theta]: 5; End angle [2 theta]: 50; and Continuous scan). For suspected novel forms a slightly slower scan speed was used over a range of 4-40° 2θ.
# Samples were analyzed by a Nicolet Almega XR Dispersive Raman Microscope for its Raman spectrum using the following conditions (Exposure Time: 1.0 s; Acquisition No: 10; Pinhole Size: 25, 50 or 100 μm; Wavelength range: 2000˜300 cm^−1 (single grating); Laser: […] 100% power; Objective: 20×/0.40 or 50×/0.75 (magnifier/numerical aperture number)). Then the measured Raman spectra were corrected by baseline subtraction using the software OMNIC™ v7.3.
# [3] = test system: CFA-induced rat inflammatory pain; test: Rat CFA-induced inflammatory pain model; assay type: in vivo; settings: 50 μL of 1 mM s.c. into paw 3 hours after CFA, FIG. 1
# Experimental: Hyperalgesia was induced by subcutaneously injecting 50 μL of CFA (Sigma-Aldrich, St. Louis, Mo., USA) into the plantar surface of the left hind paw of the rats using a 30-gauge hypodermic needle under sevoflurane anesthesia. The classical signs of inflammation, including edema and redness, for up the last day of tests were recorded. To assess the effect of test article on CFA-induced inflammatory pain, the rats were anesthetized with sevoflurane 3 hours after CFA injection and then injected 50 μL of either 1 mM test article (n=6) or Saline (n=4) subcutaneously (S.C.) into the same site as the CFA injection, using a 30-gauge hypodermic needle under sevoflurane anesthesia, according to published method (Ueda K., et al, J Pharmacol. Sci., 2010; 112(4):438-43). Paw withdrawal latencies (thermal hyperalgesia) are measured before and at […] 2, 4, and 7 days after CFA injection. Mechanical thresholds were also measured in the same way with either Formula 1 compound (n=6) or Saline (n=4) at similar different time points (for example, 1, 3 hour and 3 days). The noxious heat and mechanical thresholds were separately measured in each group of rats. The threshold was measured 3-5 times in each rat and then averaged. Stimulus interval was 5 min.
# CCI rats = test: Chronic constriction injury (CCI) model of neuropathic pain in rat; assay type: in vivo; settings: for observed side effects (drowsiness, motor incoordination, abnormality): oral dosing
# Description: The CCI model is one of the most commonly used mono-neuropathic pain model firstly described in details by Bennett and Xie (Bennett G J, Xie Y K. Pain. 1988; 33(1):87-107). It mimics important clinical chronic pain symptoms such as mechanical allodynia and thermal hyperalgesia. Chronic constriction injury of the sciatic nerve was produced by tying four loose ligatures around the left sciatic nerve according to the method of Bennett and Xie. […] Calibrated von Frey filaments were used to determine the lowest mechanical (tactile) threshold required to evoke a brisk paw withdrawal reflex in the rat hindpaws. Rats were allowed to acclimatize in wire mesh cages for 15-20 min prior to von Frey testing. Assessment of paw withdrawal thresholds (PWTs) using von Frey filaments was undertaken prior to CCI-surgery (pre-surgery baseline on day 0). Before the drug dosing on day 14, the pre-dose baseline was recorded for each rat. […] Drug-naïve CCI-rats (n=4-6 per group) were used. The oral (PO) gavage vehicle was either 10% (w/v) Povidone K25 in water for PO dosing, or 18% (w/v) CrosPovidone in water for PO dosing, or 0.5% CMC-Na/0.1% Tween 80 in distilled water for PO dosing. The positive control gabapentin was dissolved in the vehicle and orally given at 100 mg/kg (by oral gavage). Test article was dissolved or suspended in the vehicle and orally given at 25, 50, 100 and 150 mg/kg. Each CCI-rat was administered a single oral dose of test article, gabapentin or vehicle control, 2 hours before assessment of PWT.
# [4] = Rat brain and plasma concentration after IV dosing; assay type: in vivo; settings: male, CD IGS, dose 3 and 5 mg/kg
# Experimental: as §1, §2
# Immediately after the blood sampling, rats were decapitated and the whole brains were quickly removed, rinsed with cold saline (0.9% NaCl, g/mL), surface vasculature ruptured, blotted with dry gauze, weighed and kept on ice until further processing within 1 hour of collection. Each brain was homogenized in 3 mL cold phosphate-buffered saline, pH 7.4 for 10 seconds on ice using Power Gen 125. The brain homogenate from each brain was then stored at −20° C. until further processing.
# as §3
# [5] = male, CD IGS, plasma, IV, 3 mg/kg, mean
# [6] = male, CD IGS, plasma, PO, 100 mg/kg, mean
# Chain of TrkB (Q16620 32-822, species assumed): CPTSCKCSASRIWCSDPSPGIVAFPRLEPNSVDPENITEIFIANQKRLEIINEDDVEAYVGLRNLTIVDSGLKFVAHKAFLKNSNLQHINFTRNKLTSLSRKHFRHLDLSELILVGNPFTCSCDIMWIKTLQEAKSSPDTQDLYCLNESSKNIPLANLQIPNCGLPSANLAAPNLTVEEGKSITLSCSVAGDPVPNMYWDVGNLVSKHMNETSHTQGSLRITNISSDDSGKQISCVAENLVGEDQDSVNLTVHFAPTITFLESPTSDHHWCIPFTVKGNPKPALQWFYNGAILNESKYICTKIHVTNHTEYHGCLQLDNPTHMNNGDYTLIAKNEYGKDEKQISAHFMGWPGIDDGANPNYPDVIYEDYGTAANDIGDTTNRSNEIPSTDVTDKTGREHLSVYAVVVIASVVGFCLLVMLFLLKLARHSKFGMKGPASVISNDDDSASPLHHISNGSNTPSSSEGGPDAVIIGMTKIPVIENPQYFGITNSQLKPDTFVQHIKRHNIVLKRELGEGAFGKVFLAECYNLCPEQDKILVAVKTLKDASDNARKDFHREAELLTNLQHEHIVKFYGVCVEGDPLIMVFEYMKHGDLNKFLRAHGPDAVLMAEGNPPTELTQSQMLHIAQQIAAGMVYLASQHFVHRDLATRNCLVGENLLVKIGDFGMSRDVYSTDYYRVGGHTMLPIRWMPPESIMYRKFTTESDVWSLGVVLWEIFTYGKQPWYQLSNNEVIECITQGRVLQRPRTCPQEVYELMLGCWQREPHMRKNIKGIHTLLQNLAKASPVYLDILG
# Chain of TrkC (Q16288 32-839, species assumed): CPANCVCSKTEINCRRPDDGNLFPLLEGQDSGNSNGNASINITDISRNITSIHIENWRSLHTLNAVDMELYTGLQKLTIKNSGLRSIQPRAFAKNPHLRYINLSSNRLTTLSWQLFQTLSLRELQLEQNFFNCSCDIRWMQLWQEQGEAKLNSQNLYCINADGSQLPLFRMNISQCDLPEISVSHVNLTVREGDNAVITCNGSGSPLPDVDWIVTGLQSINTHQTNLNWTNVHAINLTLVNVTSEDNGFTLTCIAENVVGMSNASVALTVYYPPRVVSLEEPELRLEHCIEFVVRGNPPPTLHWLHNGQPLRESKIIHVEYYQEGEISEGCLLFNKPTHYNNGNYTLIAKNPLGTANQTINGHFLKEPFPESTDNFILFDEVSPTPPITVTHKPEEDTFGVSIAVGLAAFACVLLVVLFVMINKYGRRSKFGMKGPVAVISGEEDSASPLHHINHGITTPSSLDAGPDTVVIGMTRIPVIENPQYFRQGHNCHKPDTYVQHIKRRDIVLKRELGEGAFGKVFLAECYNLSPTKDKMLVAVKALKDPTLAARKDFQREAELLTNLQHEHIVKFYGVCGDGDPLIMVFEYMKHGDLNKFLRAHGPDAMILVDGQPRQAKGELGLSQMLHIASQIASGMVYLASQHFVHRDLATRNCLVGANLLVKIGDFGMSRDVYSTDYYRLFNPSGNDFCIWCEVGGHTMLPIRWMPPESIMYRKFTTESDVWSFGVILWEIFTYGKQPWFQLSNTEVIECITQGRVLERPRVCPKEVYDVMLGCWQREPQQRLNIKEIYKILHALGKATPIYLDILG
smiles,measurement,setting,value
"O=C(O)c1ccc(Nc2cc(N3CCN(C4CCCCC4)CC3)c3noc4c3c2C(=O)c2ccccc2-4)cc1 [Compound 701, 4-((3-(4-cyclohexylpiperazin-1-yl)-6-oxo-6H-anthra[1,9-cd]isoxazol-5-yl)amino)benzoic acid]",bioavailability,"[1]; male, CD IGS, plasma",< 20%
O=C(O)c1ccc(Nc2cc(N3CCN(C4CCCCC4)CC3)c3noc4c3c2C(=O)c2ccccc2-4)cc1 [Compound C],IC50,TrkC,> 10 µM
same,IC50,TrkB,> 10 µM
"O=C([O-])c1ccc(Nc2cc(N3CCN(C4CCCCC4)CC3)c3noc4c3c2C(=O)c2ccccc2-4)cc1.[Na+] [Compound I, Sodium 4-((3-(4-cyclohexylpiperazin-1-yl)-6-oxo-6H-anthra[1,9-cd]isoxazol-5-yl)amino)benzoate]","effect on mechanical allodynia (PWT, von Frey)",SNL rats,significantly reduced mechanical allodynia
same,stability as measured by XRPD and Raman,[2]; 40° C./75% RH,no instability
same,stability as measured by XRPD and Raman,[2]; 80° C.,no instability
same,analgesic effect (thermal hyperalgesia / mechanical threshold),[3],efficacious in relieving the pain
same,"observed side effects (drowsiness, motor incoordination, abnormality)",CCI rats,no such effect or other abnormality was observed
same,more effective in suppressing mechanical allodynia compared to gabapentin,CCI rats; same oral dose of 100 mg/kg,about 100%
same,"effect on mechanical allodynia (PWT, von Frey)","CCI rats; single oral dose 25, 50, 100 and 150 mg/kg, 2 hours before assessment, FIG. 2",significantly reduced mechanical allodynia
same,F,"[1]; PO, 100 mg/kg, mean",~100%
same,clearance,[1]; [5],4 mL/min/kg
same,half-life,[1]; [5],1.08 h
same,Vd,"[1]; male, CD IGS, plasma, IV, 3 mg/kg, mean, read-out: Vss",0.287 L/kg
same,Cmax,[1]; [6],66000 ng/mL
same,half-life,[1]; [6],2.07 h
same,bioavailability,"[1]; male, CD IGS, plasma",90 to 100%
same,concentration at 30 min,"[4]; brain, 30 min, read-out: Brain concentration",153 ng/g
same,concentration at 60 min,"[4]; brain, 60 min, read-out: Brain concentration",120 ng/g
same,concentration at 180 min,"[4]; brain, 180 min, read-out: Brain concentration",23 ng/g
same,Kp at 30 min,"[4]; brain/plasma, 30 min, read-out: Ratio Brain/Plasma",0.014
same,Kp at 60 min,"[4]; brain/plasma, 60 min, read-out: Ratio Brain/Plasma",0.018
same,Kp at 180 min,"[4]; brain/plasma, 180 min, read-out: Ratio Brain/Plasma",0.019
same,concentration at 30 min,"[4]; plasma, 30 min, read-out: Plasma Concentration",11300 ng/mL
same,concentration at 60 min,"[4]; plasma, 60 min, read-out: Plasma Concentration",8160 ng/mL
same,concentration at 180 min,"[4]; plasma, 180 min, read-out: Plasma Concentration",1830 ng/mL
"O=C([O-])c1ccc(Nc2cc(N3CCN(C4CCCCC4)CC3)c3noc4c3c2C(=O)c2ccccc2-4)cc1.[Na+] [Form A, Sodium 4-((3-(4-cyclohexylpiperazin-1-yl)-6-oxo-6H-anthra[1,9-cd]isoxazol-5-yl)amino)benzoate]",stability of the polymorphic form,[2]; 40° C./75% RH and 80° C.,stable polymorphic form
"NCC1(CC(=O)O)CCCCC1 [gabapentin, reference compound]","observed side effects (drowsiness, motor incoordination, abnormality)",CCI rats,drowsiness or motor incoordination
